Values after ≈ are worked out from the molar mass of the structure shown. Like-named read-outs stand apart in the source and are kept apart here.

For series [1], the system named is Wnt/β-catenin signaling. Briefly: Luciferase reporter assay (Super8XTOPFlash) for Wnt/β-catenin signaling in HEK293 cells. The conditions noted are these: 24 h; for EC50: Homo sapiens, Wnt3A plasmid-transfected HEK293 cells, 30-30,000 nM, mean and SD of 3-7 independent experiments; for Wnt reporter activity / activation of Wnt/β-catenin signaling: HEK293 cells. In kind it is cell-based. Here is the method:
(§1) (A) structures of niciosamide and CI-994; (B) HEK293 cells were transfected with Super8XTOPFlash and β galactosidase vectors along with Wnt3A or control vector. After 24 hours incubation, cells were treated with CI-994 at the indicated concentration for 24 hr. The luciferase activity was then measured and normalized to the activity of the β-galactosidase. (C) HT1080 cells stably transduced LRP6 with HA tag were treated with niciosamide and CI-994 at the indicated concentrations for 24 h. The levels of HA-LRP6 were examined by Western blot with anti-HA antibody. (D) Western blots showing the depletion of LRP6 after 2 days of transiently transfection of 50 nM LRP6 siRNA in HEK293 cells. ON-TARGETplus double-stranded siRNA oligomers against human LRP6 and non-specific scrambled siRNA control (Stealth RNAi™ siRNA Negative Control, Med GC) were purchased from Thermo Scientific. siRNA LRP6-1, siRNA LRP6-2 and control siRNA were Thermo Scientific catalog numbers J-003845-09, J-003845-11 and 12935300, respectively. (E) HEK293 cells were transfected with LRP6 siRNAs, and after 8 h incubation were further transfected with Super8XTOPFlash construct and β galactosidase-expressing vector. After 24 h incubation, the cells were treated with CI-994 (16 μM) for 24 h. The luciferase activity was then measured and normalized to β-galactosidase activity. All the values are the average of triplicate determinations with the SD values indicated by error bars. **P<0.01 versus corresponding control value.
HEK293 cells were transfected with SuperXTOPFlash and β-galactosidase vectors along with Wnt3A or control vector. After 24 h incubation, cells were treated with 1015 or 1039 at the indicated concentrations for 24 h. The luciferase activity was then measured and normalized to the activity of the β-galactosidase. All the values are the average of triplicate determinations with the SD values indicated by error bars. This experiment is representative of at least three such experiments performed with similar data.
Luciferase reporter assay for Wnt/β-catenin signaling: HEK293 cells were plated into 24-well plates. After overnight culture, the cells were transiently transfected with the Super8XTOPFlash luciferase construct and β-galactosidase-expressing vector along with or without Wnt3A plasmid. After 24 h incubation, cells were treated with each individual compound at the indicated concentrations for 24 h. Cells were then lysed and both luciferase and β-galactosidase activities were determined. The luciferase activity was normalized to the β-galactosidase activity.
HEK293 cells were plated into 24-well plates. After overnight culture, the cells were transiently transfected with the Super8XTOPFlash luciferase construct and β-galactosidase-expressing vector along with the Wnt3A plasmid. After 24 h incubation, the cells were treated with each individual compound at 30-30,000 nM in triplication for 24 h. The cells were then lysed, and luciferase and β-galactosidase activities were determined with the luciferase assay system (Promega, Cat. #E1501) and β-galactosidase assay system (Promega, Cat. #E2000), respectively. The luciferase activity was normalized to the s-galactosidase activity, and the EC50 values were calculated by use of GraphPad software, and shown in the below table. All the EC50 values (mean and SD) are from 3-7 independent experiments.
On the technique in general: A reporter such as luciferase makes a cellular process visible.

Series [2] is described as follows: Aqueous (kinetic) solubility assay in PBS pH 7.4. In kind it is physicochemical. The note with it: phosphate-buffered saline, 25 °C, pH 7.4, aqueous buffer, kinetic from dmso stock, PBS pH 7.4, 2% DMSO, two hours, assay range 2-200 μM. As for the experimental part: Aqueous solubility assay: Using a 10 mM stock solution of the compound in 100% DMSO, dilutions were prepared to a theoretical concentration of 200 μM in duplicates in phosphate-buffered saline pH 7.4 with 2% final DMSO. In parallel, compound dilutions in 50% acetonitrile/PBS were prepared to theoretical concentrations of 0 μM (blank), 50 μM, 100 μM and 200 μM with 2% final DMSO to generate calibration curves. The experimental compound dilutions in PBS were further allowed to equilibrate at 25° C. on a thermostatic orbital shaker for two hours and then centrifuged at 14000 rpm, 5 min and filtered through HTS filter plates using a vacuum manifold. The supernatants of test compounds were diluted 2-fold with acetonitrile contained 4% DMSO before measuring. Ondansetron was used as reference compound to control proper assay performance. 200 μl of samples were transferred to 96-well plate and measured in 200-550 nm range with 5 nm step. The effective range of this assay is approximately 2-200 μM and the compounds returning values close to the upper limit of the range may have higher actual solubility (e.g. 5 ? deoxy-5-fluorouddine).

Series [3] is described as follows: Metabolic stability in mouse liver microsomes. The format is in vitro ADME. The conditions noted are these: 2 μM, five time points over 40 min, NADPH. As for the experimental part: Metabolic stability of several compounds (1009, 1011, 1015, 1020, and 1056) and 2 reference compounds (propranolol and imipramine) were determined in mouse liver microsomes at five time points over 40 min using HPLC-MS. Metabolic stability is defined as the percentage of parent compound lost over time in the presence of a metabolically active test system.
Metabolic stability in mouse liver microsomes: Mouse hepatic microsomes were isolated from pooled, perfused livers of Balb/c male mice according to the standard protocol. The batch of microsomes was tested for quality control using Imipramine, Propranolol and Verapamil as reference compounds. Microsomal incubations were carried out in 96-well plates in 5 aliquots of 40 μL each (one for each time point). Liver microsomal incubation medium contained PBS (100 mM, pH 7.4), MgCl2 (3.3 mM), NADPH (3 mM), glucose-6-phosphate (5.3 mM), glucose-6-phosphate dehydrogenase (0.67 units/ml) with 0.42 mg of liver microsomal protein per ml. Control incubations were performed replacing the NADPH-cofactor system with PBS. Test compound (2 μM, final solvent concentration 1.6%) was incubated with microsomes at 37° C., shaking at 100 rpm. Incubations were performed in duplicates. Five time points over 40 minutes had been analyzed. The reactions were stopped by adding 12 volumes of 90% acetonitrile-water to incubation aliquots, followed by protein sedimentation by centrifuging at 5500 rpm for 3 minutes. […]. Supernatants were analyzed using the HPLC system coupled with tandem mass spectrometer.
The elimination constant (kel), half-life (t1/2) and intrinsic clearance (Clint) were determined in plot of […] versus time, using linear regression analysis: […]

For another series, the system named is C2C12 cells. The series can be described thus: Alkaline phosphatase (ALP) activity assay, osteoblastic differentiation of C2C12 cells. The format is cell-based. The note with it: dose-response 0.1-12.8 μM, 72 h. As for the experimental part:
C2C12 cells were seeded into 24-well plates (1×10^5 cells/well). After culture overnight, the cells were treated with a Wnt activator at 0.8 μM (A) and 1.6 μM (B) for 72 h. The ALP activity was measured by ALP assay kit from AnaSpec (AS-72146). All the values are the average of triple determinations with the s.d. indicated by error bars. *P<0.05, **P<0.01 versus corresponding control value. This experiment is a representation of two such experiments performed with similar data.
C2C12 cells were seeded into 24-well plates (1×10^5 cells/well). After culture overnight, the cells were treated with the noted compounds at 0, 0.1, 0.2, 0.4, 0.8, 1.6, 3.2, 6.4 and 12.8 μM for 72 hours. The ALP activity was measured by ALP assay kit from AnaSpec (AS-72146). All the values are the average of triple determinations with the s.d. indicated by error bars.
Alkaline phosphatase (ALP) activity assay: C2C12 cells in 24-well plates were treated with each individual compound at the indicated concentrations for 72 h. Cells were then harvested for assay of ALP activity with the ALP assay kit (AnaSpec) according to the manufacturers specifications.

The subject of the next series is LRP6. The series can be described thus: Wnt reporter assay in HEK293 cells after LRP6 siRNA knockdown. The format is cell-based, human. The note with it: CI-994 16 μM, 1011, 1015, 1023 1 μM, 24 h. As for the experimental part: as §1
(A) HT1080 cells stably transduced with human LRP6 with HA tag were treated with niciosamide (1 μM) and other compounds as noted (1 μM) for 24 hr. The levels of HA-LRP6 were examined by Western blots with anti-HA antibody. All samples were also probed with anti-actin antibody to verify equal loading. This experiment is a representative of two such experiments performed with similar data. (B) N2a cells were treated with 1015 and 1011 at the indicated concentrations for 24 h. The expression levels of LRP6, β-catenin and actin were examined by Western blotting. This experiment is a representative of three such experiments performed with similar data. (C) HEK293 cells were transfected with LRP6 siRNAs, and after 8 h incubation were further transfected with Super8XTOPFlash construct and β galactosidase-expressing vector. ON-TARGETplus double-stranded siRNA oligomers against human LRP6 and non-specific scrambled siRNA control (Stealth RNAi™ siRNA Negative Control, Med GC) were purchased from Thermo Scientific. siRNA LRP6-1, siRNA LRP6-2 and control siRNA were Thermo Scientific catalog numbers J-003845-09, J-003845-11 and 12935300, respectively. […] The luciferase activity was then measured and normalized to β-galactosidase activity. […]

For series [4], the system named is Wnt/β-catenin signaling. The conditions noted are these: cancer cells; cited from earlier work.
[5] abbreviates: read-out: PBS solubility, pH 7.4, μM Exp1.
[6] abbreviates: read-out: PBS solubility, pH 7.4, μM Exp2.
Where [7] appears, read: read-out: PBS solubility, pH 7.4, μM Mean.

The term EC50 denotes the concentration needed to bring the measured effect to its halfway point. Read a high EC50 as a less potent agent. Compound `Nc1ccccc1NC(=O)c1ccc(NC(=O)CCN2CCC[C@@H]3CCCC[C@@H]32)cn1` (racemic) [Compound 1059] yielded an EC50 with Wnt/β-catenin signaling [1] of 494 ± 147 nM.

Broadly, the solubility is the concentration that dissolves in the medium under given conditions. For the compound `Nc1ccccc1NC(=O)c1ccc(C(=O)NCCN2CCCC3CCCCC32)cn1` (stereo not shown) [Compound 1009], the midpoint of the response in the series on Wnt/β-catenin signaling [1], the EC50, lay at 601 ± 101 nM. Besides, the solubility at 2 h in series [2] (setting [5]) worked out at 197 µM (≈ 83 µg/mL); in series [2] (setting [6]) it was 191 µM (≈ 80.5 µg/mL); in series [2] (setting [7]), 194 µM (≈ 81.8 µg/mL). For the same compound, the “stability in mouse hepatic microsomal system” value in series [3] is “moderate stability”. In addition, the “potency in inducing C2C12 osteoblastic differentiation compared with CI-994” value in the series on C2C12 cells is reported as “more potent than CI-994”.

On to `Nc1ccccc1NC(=O)c1ccc(C(=O)NCCN2CCC3(CCCCC3)CC2)cn1` [Compound 1013], for which the EC50 with Wnt/β-catenin signaling [1] came to 444 ± 36 nM.

On to `Nc1ccccc1NC(=O)c1ccc(C(=O)NCC2CCN2C2CCCC2)cc1` (stereo not shown) [Compound 1021], for which a half-maximal effect in the series on Wnt/β-catenin signaling [1] (EC50) was put at 1380 ± 643 nM.

With `CC1CCCC(C)N1CCC(=O)Nc1ccc(C(=O)Nc2ccccc2N)nc1` (stereo not shown) [Compound 1023], in the series with Wnt/β-catenin signaling [1], it took 496 ± 195 nM to reach a half-maximal effect (EC50). Further, the “effect of knockdown of LRP6 expression on the compound's effect on Wnt/β-catenin signaling” value in the series with LRP6 is recorded as “significantly attenuated”.

`CCN1CCCC1CNC(=O)c1ccc(C(=O)Nc2ccccc2N)nc1` (stereo not shown) [Compound 1028] came in with an EC50 in the series on Wnt/β-catenin signaling [1] of 519 ± 24 nM.

With `COCCN1CCCC1CNC(=O)c1ccc(C(=O)Nc2ccccc2N)nc1` (stereo not shown) [Compound 1030], in the series on Wnt/β-catenin signaling [1], the EC50 is 483 ± 40 nM.

Regarding `Nc1ccccc1NC(=O)c1ccc(C(=O)NCC2CCCN2CC2CCCCC2)cn1` (stereo not shown) [Compound 1038], the EC50 in the series with Wnt/β-catenin signaling [1] was 526 ± 268 nM.

Regarding `Nc1ccccc1NC(=O)c1ccc(C(=O)NCC2CCCN2CCc2ccccc2)cn1` (stereo not shown) [Compound 1039], in the series on Wnt/β-catenin signaling [1], the “Wnt reporter activity / activation of Wnt/β-catenin signaling” value (“Wnt reporter activity / activation” for short) is reported as “activate” and the midpoint of the response, the EC50, lay at 298 ± 25 nM.

For the compound `COc1ccc(CN2CCC2CNC(=O)c2ccc(C(=O)Nc3ccccc3N)nc2)cc1` (stereo not shown) [Compound 1041], the EC50 in the series on Wnt/β-catenin signaling [1] is 596 ± 79 nM.

In the case of `Nc1ccccc1NC(=O)c1ccc(C(=O)NCC2CCN2C2CCCCC2)cn1` (stereo not shown) [Compound 1045], in the series on Wnt/β-catenin signaling [1], the EC50 turned out to be 507 ± 128 nM.

In the case of `Nc1ccccc1NC(=O)c1ccc(C(=O)NCC2CCCN2C2CCCCC2)cn1` (stereo not shown) [Compound 1046], the EC50 in the series with Wnt/β-catenin signaling [1] stood at 532 ± 38 nM.

`Nc1ccccc1NC(=O)c1ccc(C(=O)NCC2CCN2C2CCCCCC2)cn1` (stereo not shown) [Compound 1050] displayed an EC50 in the series on Wnt/β-catenin signaling [1] of 408 ± 77 nM.

In the case of `CC(=O)Nc1ccc(C(=O)Nc2ccccc2N)nc1` [Compound 1056], the “stability in mouse hepatic microsomal system” value in series [3] was “good stability”.

Consider `Cc1cc(Cl)ccc1OCCCC(=O)NO` [Droxinostat, reference compound], for which, in the series on Wnt/β-catenin signaling [1], the “Wnt reporter activity / activation” value is on record as “unable to activate”.

Regarding `Cn1cc(CNCC2CCN(c3ncc(C(=O)NO)cn3)CC2)c2ccccc21` [JNJ-26481585, reference compound], the “Wnt reporter activity / activation” value with Wnt/β-catenin signaling [1] is reported as “unable to activate”.

Turning to `O=C(Nc1ccc([N+](=O)[O-])cc1Cl)c1cc(Cl)ccc1O` [Niclosamide, 5-chloro-N-[2-chloro-4-nitrophenyl]-2-hydroxy benzamide], in the series with Wnt/β-catenin signaling [4], the “Wnt/β-catenin signaling (by inducing LRP6 degradation)” value was “suppresses”.

On to `Cc1nccn1CC1CCc2c(c3ccccc3n2C)C1=O` (stereo not shown) [Ondansetron, reference compound], for which the values for the solubility at 2 h in series [2] (setting [5]), in series [2] (setting [6]) and in series [2] (setting [7]) were 109 µM (≈ 32 µg/mL), 113 µM (≈ 33.2 µg/mL) and 111 µM (≈ 32.6 µg/mL), respectively.

Turning to `O=C(CCCCCN1C(=O)c2cccc3cccc(c23)C1=O)NO` [Scriptaid, reference compound], in the series with Wnt/β-catenin signaling [1], the “Wnt reporter activity / activation” value is “unable to activate”.
